The text below walks through data of patent US20260183316A1, “CANNABICHROMENE-TYPE CANNABINOID COMPOSITIONS, METHODS AND USES THEREOF” (Cronos Group Inc., priority 2022, published 2026).

Values joined by “and” are separate entries in the source; they are usually repeats but may differ in a detail not shown here. Identical values can stand only once.

The nature of data set [1]: Pharmacokinetic measurement of CBC in blood (HPLC-MS/MS). As to conditions: analyte CBC.
The subject of data set [2] is C57BL/6 mice. Kind of data set: Open field test (OFT): locomotion and time in central quadrant. It counts as in vivo. Conditions: for dose-dependent reduction in movement in the OFT / time spent in the center of the OFT (anxiety-reducing effect): 30 minutes after administration, 0.3-30 mg/kg p.o.; for ED50: po, 0.5 h; for Movement Emax ± S.E.M.: OFT distance in 5 minutes. As to the method:
(§1) Female and male C57BL/6 mice between 8 and 12 weeks of age were used for these studies. Animals were group housed at the Laboratory Animal Services Unit (LASU) at the University of Saskatchewan (5 mice/cage for females, 3 mice/cage for males) with a standard 12:12 light-dark cycle, ad libitum access to food and water, and environmental enrichment. All compounds were prepared in a vehicle composed of ethanol and kolliphor in saline (1:1:8) for i.v. tail vein injections or olive oil for oral gavage (p.o.) at the doses indicated in description of the figures. Compounds were administered at the doses indicated in mg/kg body weight, with body weights being measured on the same day as drug administration. Experimenters were blinded to treatment for all assessments and analyses. Animals were purchased from Charles River Labs (Senneville, QC), rather than bred, to reduce animal numbers. At the end of experiments, mice were euthanized via isoflurane overdose and cardiac puncture. In all cases, experiments were performed with the approval of the University Animal Care Committee (UACC) at the University of Saskatchewan (Animal Use Protocol #20200043) and in keeping with the guidelines of the Canadian Council on Animal Care (CCAC).
(§2) Mice were assessed in the ‘tetrad’ battery of physiological and behavioural assessments. This included, in the following order: a bar holding assessment of catalepsy, rectal thermometer assessment of body temperature, a test of nociception in the warm water tail flick assay, and a test of locomotion and anxiety in the open field test (OFT). The precise timing of each measurement are stated in description of the figures. The same animals were used for all four measures of the tetrad.
Locomotion was measured in the open field test (OFT) after compound administration. Mice were placed in the centre of an open chamber measuring 1 m×1 m for 5 minutes. Total distance travelled and time spent in the central quadrant of the field are recorded on a video camera, and the video analyzed in EthoVision XT (Noldus Information Technology Inc., Leesburg, VA).

Data set [3] deals with C57BL/6 mice. The data set is described as follows: Elevated plus maze (EPM), modelled anxiety. It counts as in vivo. As to conditions: 10 mg/kg p.o., 30 minutes after treatment; for time spent in the closed arms of the EPM: post-hoc no differences. On the procedure: (§3) In addition to the physiological assessment of the tetrad, mice were subjected to several behavioural assessments detailed here. These experiments followed a set timeline beginning 30 minutes after compound administration, based on an approximation that the maximum blood concentration of drug occurred 30-60 minutes after animals had received oral gavage. In these experiments the same type of mice were used for elevated plus maze, y-maze, and forced swim test back-to-back-to-back; however, this was a separate cohort of mice from those used in tetrad or PK experiments.
Modelled anxiety—the elevated plus maze: Mice were placed in the centre space of an elevated plus maze (EPM) standing 45 cm above the floor and having 2 closed-walled arms and 2 open arms each measuring 45 cm long. Mice were placed facing an open arm and their movement recorded for 5 minutes beginning 30 minutes after drug administration. Total distance travelled, arm entries, and time spent in each arm was recorded on a video camera and scored by an individual blinded to treatment group.

In data set [4] the test system is C57BL/6 mice. Kind of data set: Nociception in the warm water tail flick assay, tetrad. It counts as in vivo. As to conditions: for ED50: Mus musculus, po, 20 min, tail flick 52° C., read-out: Pain relief ED50 (95% C.I.); for ED50 / Pain relief Emax ± S.E.M.: 20 min after 0.3-30 mg/kg p.o.; for Pain relief Emax ± S.E.M.: tail flick % MPE 20 sec; for dose-dependent reduction in pain sensation: warm water tail flick 20 minutes after administration, 0.3-30 mg/kg p.o. As to the method:
as §1, §2
Activation of CB1R is associated with elevated tail-flick latency (i.e. less nociception as indicated by the mouse keeping their tail in the water longer).
(In general: Hot-plate and tail-flick tests time the reaction to a heat stimulus.)

For data set [5] the following is noted: oral gavage once daily for 14 days, cited from earlier work.
The test system of data set [6] is C57BL/6 mice. The data set is described as follows: Body temperature by rectal thermometer, tetrad. As to conditions: for dose-dependent hypothermia: 10 min after administration, 0.3-30 mg/kg p.o.; for Body temperature Emax ± S.E.M.: change in body temperature 10 min after 0.3-30 mg/kg p.o. It counts as in vivo. On the procedure:
as §1, §2
Body temperature was measured after compound administration by using a rectal thermometer. Activation of CB1R is associated with reduced body temperature.

The next data set has as its system rodents. Conditions: intravenously administered, high doses (30 and 100 mg/kg); cited from earlier work.
The test system of data set [7] is C57BL/6 mice. The data set is described as follows: Catalepsy in the bar (ring) holding assay, tetrad. It counts as in vivo. As to conditions: for Lethargy Emax ± S.E.M.: catalepsy % MPE 60 sec, 5 min after 0.3-30 mg/kg p.o.; for dose-dependent catalepsy: ring holding assay 5 minutes after treatment, 0.3-30 mg/kg p.o. As to the method: as §1, §2
Catalepsy was assessed in the bar holding assay after compound administration with mice placed so that their forepaws clasped a 0.7-cm ring clamp 4.5 cm above the surface of the testing space. The length of time the ring was held was recorded up to 60 sec (i.e., percent maximum possible effect [MPE] 60 seconds) with the trial ending if the mouse turned its […] or body or made three consecutive escape attempts. Activation of CB1R is associated with increased catalepsy.

The test system of data set [8] is C57BL/6 mice. Kind of data set: y-maze, modelled exploratory behaviour and cognition. It counts as in vivo. Conditions: 10 mg/kg p.o., 40 min after administration. On the procedure: as §3
Modelled exploratory behaviour and cognition—the y-maze: The y-maze consists of three […] long×15 cm wide arms equally spaced 120° apart. Mice were allowed to habituate to the y-maze with one arm closed off (the novel arm) for 15 minutes 1 day prior to the experiment. On testing day, mice were placed in the centre space the y-maze facing the novel arm. Movement and arm entries were recorded for 5 min beginning 40 minutes after drug administration. Total distance travelled, arm entries, and % correct alternations between each arm were recorded on a video camera and scored by an individual blinded to treatment group.

For another data set, the system named is Long Evans rats. As to conditions: CBC 3-30 mg/kg following D9-THC 3 mg/kg intraperitoneal; cited from earlier work.
Data set [9] relates to C57BL/6 mice. The data set is described as follows: Forced swim test (FST), modelled behavioural despair and resiliency. Conditions: 10 mg/kg p.o., 50 min after administration. It counts as in vivo. On the procedure:
as §3
Modelled behavioural despair and resiliency—the forced swim test: Mice were placed in 800 mL of 22° C. water in a clear beaker with a 10 cm diameter such that the depth of water was approximately 10-11 cm. Mice were allowed to swim and their movement recorded for 5 minutes beginning 50 minutes after drug administration. Time spent swimming and time spent immobile was recorded on a video camera and scored by an individual blinded to treatment group.

The nature of data set [10]: Pharmacokinetic measurement of THC in blood (HPLC-MS/MS). Conditions: analyte THC.
For a further data set, the system named is dogs. Conditions: cited from earlier work.
[11] abbreviates: Mus musculus, OFT locomotion 30 min after 0.3-30 mg/kg p.o., read-out: Movement ED50 (95% C.I.).
The mark [12] stands for this setting: time in central quadrant of OFT, 30 min after 0.3-30 mg/kg p.o.

One may read the ED50 as the dose that gives a 50% effect, or the effect in half of the subjects. With `CCCCCc1cc(O)c2c(c1)OC(C)(CCC=C(C)C)C=C2` (racemic) [CBC, cannabichromene], the F in data set [1] (10 mg/kg i.v., Combined) worked out at 100%. The compound further displayed a F in [1] (10 mg/kg i.v., Female) of 100%. The compound also returned a F in data set [1] (10 mg/kg i.v., Male) of 100%. For the same compound, the F in [1] (10 mg/kg p.o., Combined) came to 39%. In addition, the F in [1] (10 mg/kg p.o., Female) is 53%. Further, the F in [1] (10 mg/kg p.o., Male) is 27%. In the data set with C57BL/6 mice [2], the “dose-dependent reduction in movement in the OFT” value is given as “dose-dependent reduction in movement” and the “time spent in the center of the OFT (anxiety-reducing effect)” value is given as “anxiety-reducing effect”. Further, the median effective dose (ED50) in the data set with C57BL/6 mice [2] (setting [11]) is 35 mg/kg. Also, the “Movement Emax ± S.E.M.” value in the data set on C57BL/6 mice [2] (30 min after 0.3-30 mg/kg p.o.) is reported as 1,600 ± 340 cm. The “Anxiety-reduction Emax ± S.E.M.” value in the data set on C57BL/6 mice [2] (setting [12]) came to 32 ± 7.2 s. Also, in the data set on C57BL/6 mice [3], the “open arm entries in the EPM” value is “trend toward CBC producing more open arm entries than other groups, this was not statistically significant” and the “time spent in the closed arms of the EPM” value is “trend toward less time spent in the closed arms”. In the data set on C57BL/6 mice [4], the ED50 was above 30 mg/kg, the “Pain relief Emax ± S.E.M.” value worked out at 37 ± 13% and the “dose-dependent reduction in pain sensation” value is reported as “dose-dependent pain-relieving effects”. In addition, the “concentrations in brain tissue” value in [5] is “highest concentrations in brain tissue”. Moreover, the “maximum observed concentration and AUC in plasma” value in data set [5] (of the four cannabinoids tested) was “highest maximum observed concentration and AUC”. Further, in the data set on C57BL/6 mice [6], the dose-dependent hypothermia entry is on record as “no dose-dependent hypothermia” and the “Body temperature Emax ± S.E.M.” value stood at 0.53 ± 0.27 °C. Further, in the data set on rodents, the tetrad effects result was “produced locomotor suppression, catalepsy, and hypothermia consistently at high doses”. Also, in the data set with C57BL/6 mice [7], the “Lethargy Emax ± S.E.M.” value stood at 1.1 ± 0.16 % and the dose-dependent catalepsy entry is reported as “no dose-dependent catalepsy”. Further, in the data set on C57BL/6 mice [8], the “% correct alternations in the y-maze” value was “increased % correct alternations compared to vehicle”. Further, in the data set on Long Evans rats, the “perceptual effects of D9-THC” value was “did notsignificantly alter the perceptual effects of D9-THC” and the response rates entry is “decrease response rates”.

Turning to `CCCCCc1cc(O)c2c(c1)OC(C)(C)[C@@H]1CCC(C)=C[C@@H]21` [THC, tetrahydrocannabinol], in the data set with C57BL/6 mice [2], the “dose-dependent reduction in movement in the OFT” value was “dose-dependent reduction in movement” and the “time spent in the center of the OFT (anxiety-reducing effect)” value is “dose-dependent increase in the total time spent in the center of the OFT”. Besides, in the data set on C57BL/6 mice [2] (setting [11]), the ED50 was around 6.6 mg/kg. Moreover, the ED50 with C57BL/6 mice [2] (Mus musculus, time in central quadrant of OFT, 30 min after 0.3-30 mg/kg p.o., read-out: Anxiety-reduction ED50 (95% C.I.)) is above 30 mg/kg. Further, the Emax in the data set with C57BL/6 mice [2] (Mus musculus, OFT, versus vehicle-treated level of approximately 3,300 cm in 5 minutes, read-out: reduction in movement at maximum effect) was 48%. In addition, the “Movement Emax ± S.E.M.” value with C57BL/6 mice [2] (30 min after 0.3-30 mg/kg p.o.) is 1,700 cm and 1,700 ± 980 cm. Moreover, the “Anxiety-reduction Emax ± S.E.M.” value in the data set with C57BL/6 mice [2] (setting [12]) worked out at 81 ± 72 s. In addition, in the data set with C57BL/6 mice [3], the “overall movement in the EPM” value was “reduced overall movement in the EPM, although this change was not statistically significant”; the “time in the center of the EPM” value is “more time in the center compared to 1:6.92 (CBC:THC)”; the “time spent in the closed arms of the EPM” value is given as “trend toward less time spent in the closed arms”. For the same compound, the “time in the open arms of the EPM” value with C57BL/6 mice [3] (not statistically significant) was “appeared to suppress time in the open arms”. Also, in the data set with C57BL/6 mice [9], the “time swimming and time immobile in the FST compared to vehicle” value was “further suppressed swimming time and increased immobile time”. Further, in the data set with C57BL/6 mice [4], the ED50 was around 3.8 mg/kg; the “Pain relief Emax ± S.E.M.” value was 57% and 57 ± 16%; the “dose-dependent reduction in pain sensation” value is “dose-dependent reduction in pain sensation”. Moreover, in the data set with C57BL/6 mice [6], the dose-dependent hypothermia entry is “dose-dependent hypothermia”; the “Body temperature Emax ± S.E.M.” value is −2.8 °C and −2.8 ± 0.20 °C. In addition, the ED50 with C57BL/6 mice [6] (Mus musculus, po, 10 min, 10 min after 0.3-30 mg/kg p.o., read-out: Body temperature ED50 (95% C.I.)) is around 0.2 mg/kg. Besides, in the data set with C57BL/6 mice [7] (Mus musculus, po, 5 min, catalepsy 5 min after 0.3-30 mg/kg p.o., male and female combined, read-out: Lethargy ED50 (95% C.I.)), the ED50 is around 12 mg/kg. In the data set on C57BL/6 mice [7], the “Lethargy Emax ± S.E.M.” value is 76% and 76 ± 16%; the dose-dependent catalepsy entry is listed as “increasing catalepsy in a dose-dependent manner”. In addition, in the data set with C57BL/6 mice [8], the “% correct alternations in the y-maze” value is recorded as “appeared to reduce correct alternations”, the “overall locomotion in the y-maze” value is on record as “reduced overall locomotion” and the “total arm entries in the y-maze” value is “lower”. The F in data set [10] (10 mg/kg i.v., Combined) amounted to 100%. Further, in data set [10] (10 mg/kg i.v., Female), the F is given as 100%. The F in data set [10] (10 mg/kg i.v., Male) turned out to be 100%. Moreover, in data set [10] (10 mg/kg p.o., Combined), the F is 15%. Moreover, in data set [10] (10 mg/kg p.o., Female), the F stood at 33%. In data set [10] (10 mg/kg p.o., Male), the F was found to be 3.7%.

`CCCCCc1cc(OC(C)=O)c2c(c1)OC(C)(C)[C@@H]1CCC(C)=C[C@@H]21` [THC-OAc, tetrahydrocannabinol-o-acetate]: the “degree of ataxia compared with Δ9-THC” value in the data set on dogs is listed as 2 fold.
